The source of these data is US20200308539A1, “AFFINITY-TAGGED PHOTOSWITCHES AND METHODS OF USE THEREOF” (The Regents of the University of California, priority 2017, published 2020).

For test [1], the target named is T1, mGluR5 (Homo sapiens, UniProt P41594).
T1 construct: expressed in transfected cells; host or cells: HEK293 cells
The test can be described thus: Calcium waves (FLUO-4) in HEK293 cells expressing mGluR5. Type of test: cell-based. The following applies: HEK293 cells expressing mGluR5, FLUO-4. The method, then: (§1) However, the goal was to target the native, unmodified proteins in cells, tissues or the intact organism, and this would require the affinity moiety to attach directly to the target protein, something that could impact function of the target protein. […] This notion was tested by asking whether there would be a functional impact of nanobody binding to an mGluR. For this purpose, mGluR5 was selected. mGluR5 is a Gq-coupled receptor whose activation stimulates phospholipase C to generate IP3 and trigger the release of calcium from internal stores, which could detect with the calcium indicator FLUO-4 that was loaded into the cells in its AM ester form. […] The activation of the receptor by NB-8260 could be directly detected using single molecule fluorescence resonance energy transfer (smFRET). SNAP-mGluR5 dimers labeled in HEK293 cells with a mixture of FRET donor and acceptor (green and red) BG dyes were isolated by cell lysis and immune-purified and immobilized at low density on a passivated glass surface (FIG. 6A) for total internal reflection fluorescence (TRIF) microscopy. Individual spots containing both the green and red dye (i.e. one on each subunit of the dimer) were selected for analysis and FRET levels measured: i) in the absence of ligand; ii) in 0.8 mM glutamate; iii) in the presence of a nanobody; or iv) in a combination of 0.8 mM glutamate and the nanobody. […]

Test [2] concerns mGluR5. Nature of the test: Single molecule FRET (smFRET) of SNAP-mGluR5 dimers, TIRF microscopy. Format: biochemical. The following applies: 0.8 mM glutamate; absence of ligand ~0.5. The method, then:
as §1

Molecules are shown by their SMILES.

T1 sequence (P41594 21-1212): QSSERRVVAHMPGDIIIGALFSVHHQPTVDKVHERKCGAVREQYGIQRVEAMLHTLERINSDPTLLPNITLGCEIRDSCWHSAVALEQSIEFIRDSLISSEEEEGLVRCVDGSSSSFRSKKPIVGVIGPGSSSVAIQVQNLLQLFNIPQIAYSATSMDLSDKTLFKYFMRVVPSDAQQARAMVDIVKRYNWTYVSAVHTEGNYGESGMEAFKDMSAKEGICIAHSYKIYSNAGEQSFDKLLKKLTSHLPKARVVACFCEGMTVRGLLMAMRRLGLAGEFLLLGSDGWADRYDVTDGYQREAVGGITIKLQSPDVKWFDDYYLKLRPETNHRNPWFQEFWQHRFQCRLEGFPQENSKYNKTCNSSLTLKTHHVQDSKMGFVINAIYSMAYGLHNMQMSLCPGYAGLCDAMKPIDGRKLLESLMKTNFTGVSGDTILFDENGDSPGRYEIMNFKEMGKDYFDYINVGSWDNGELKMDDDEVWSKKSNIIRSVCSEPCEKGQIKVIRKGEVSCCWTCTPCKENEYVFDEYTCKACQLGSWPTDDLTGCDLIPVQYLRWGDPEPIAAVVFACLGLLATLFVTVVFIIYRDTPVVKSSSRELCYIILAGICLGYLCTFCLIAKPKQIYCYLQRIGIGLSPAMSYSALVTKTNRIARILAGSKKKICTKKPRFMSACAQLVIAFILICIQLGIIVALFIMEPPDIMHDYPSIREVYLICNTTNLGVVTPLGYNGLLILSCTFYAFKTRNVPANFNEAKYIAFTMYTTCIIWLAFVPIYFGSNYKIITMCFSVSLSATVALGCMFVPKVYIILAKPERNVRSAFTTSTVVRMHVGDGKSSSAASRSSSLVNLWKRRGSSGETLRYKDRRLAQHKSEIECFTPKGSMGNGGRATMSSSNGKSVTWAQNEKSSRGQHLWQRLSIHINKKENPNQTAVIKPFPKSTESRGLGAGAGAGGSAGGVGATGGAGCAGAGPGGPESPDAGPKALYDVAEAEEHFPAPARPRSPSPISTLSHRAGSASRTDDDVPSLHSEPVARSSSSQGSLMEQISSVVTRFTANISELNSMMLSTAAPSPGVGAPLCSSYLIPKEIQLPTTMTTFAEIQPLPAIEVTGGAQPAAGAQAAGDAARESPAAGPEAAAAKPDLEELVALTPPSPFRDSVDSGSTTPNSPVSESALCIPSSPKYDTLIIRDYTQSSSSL

With `N[C@@H](CCC(=O)O)C(=O)O` [glutamate], in test [1], the “activation of calcium waves” value is “activates calcium waves”. Besides, in test [2], the FRET level is given as approximately 0.3.
